# Experimental data: PubChem BioAssay (NCI)
#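 Values below derive from 48-hour exposures of cells grown in 96-well plates, with endpoints linearly interpolated between the two concentrations bracketing the appropriate inhibition level. TGI marks complete inhibition of growth.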
# Key:
# Assay in all cases: growth of human tumour cells (NCI), 48 h
# SK-MEL-28 melanoma = test system: SK-MEL-28 melanoma
# SW-620 colon = test system: SW-620 colon
# UACC-257 melanoma = test system: UACC-257 melanoma
# HCT-15 colon = test system: HCT-15 colon
# MALME-3M melanoma = test system: MALME-3M melanoma
# OVCAR-3 ovarian = test system: OVCAR-3 ovarian
# NCI-H460 lung = test system: NCI-H460 lung
# COLO 205 colon = test system: COLO 205 colon
# ACHN renal = test system: ACHN renal
# UO-31 renal = test system: UO-31 renal
# IGROV1 ovarian = test system: IGROV1 ovarian
# TK-10 renal = test system: TK-10 renal
# NCI-H522 lung = test system: NCI-H522 lung
# EKVX NSCLC = test system: EKVX NSCLC
# RXF 393 renal = test system: RXF 393 renal
# UACC-62 melanoma = test system: UACC-62 melanoma
# MDA-MB-231 breast = test system: MDA-MB-231 breast
# MCF7 breast = test system: MCF7 breast
# NCI/ADR-RES ovarian = test system: NCI/ADR-RES ovarian
Compound,TGI (SK-MEL-28 melanoma) [µM],TGI (SW-620 colon) [µM],TGI (UACC-257 melanoma) [µM],TGI (HCT-15 colon) [µM],TGI (MALME-3M melanoma) [µM],TGI (OVCAR-3 ovarian) [µM],TGI (NCI-H460 lung) [µM],TGI (COLO 205 colon) [µM],TGI (ACHN renal) [µM],TGI (UO-31 renal) [µM],TGI (IGROV1 ovarian) [µM],TGI (TK-10 renal) [µM],TGI (NCI-H522 lung) [µM],TGI (EKVX NSCLC) [µM],TGI (RXF 393 renal) [µM],TGI (UACC-62 melanoma) [µM],TGI (MDA-MB-231 breast) [µM],TGI (MCF7 breast) [µM],TGI (NCI/ADR-RES ovarian) [µM]
COC(=O)CCc1cccnc1/C=N/O,> 100,> 100,> 100,> 100,> 100,> 100,> 100,> 100,> 100,> 100,> 100,> 100,> 100,> 100,> 100,> 100,–,–,–
COc1ccc(N2C(=O)[C@@H]3[C@H](C2=O)c2[nH]c4ccccc4c2C2CCC(C(C)(C)C)C[C@@H]23)cc1 (stereo partly drawn),> 100,> 100,> 100,> 100,> 85,> 75.7,> 100,> 84.2,87.6,> 78.4,> 100,74.6,62.7,81.4,46,49.4,–,–,–
Cn1nc2ccc3nccc(N(CCO)CCO)c3c2n1,> 100,> 100,> 100,> 100,> 100,> 100,> 100,> 100,> 100,> 100,> 100,> 100,> 100,> 100,> 100,> 100,–,–,–
CCCCCCCCCCCCn1[nH]c(C)c(C(=S)SCCCCCCCC)c1=O,> 100,> 62,> 100,> 100,> 100,> 100,> 100,> 100,> 100,> 100,> 100,> 100,> 100,> 100,> 80.9,64.6,–,–,–
CCN(CC)Cc1cc(Nc2c3ccccc3nc3c4ccccc4n(C)c23)ccc1O,15.3,18.6,23.3,22.8,27,–,24.5,17.1,24,22.8,31.2,28.2,6.39,29.7,25.5,17.2,–,–,–
CC1C=C[C@H](Sc2ccccc2)CC[C@@]1(C)O (stereo partly drawn),> 100,> 100,> 100,> 100,> 100,–,> 100,> 100,> 100,> 100,> 100,> 100,–,> 100,> 100,> 100,–,–,–
CSc1nc2c(c(O)c(C)c(=O)n2C2OCC(OC(C)=O)C(OC(C)=O)C2OC(C)=O)c(=O)n1C (stereo not drawn),> 100,> 100,> 100,> 100,> 100,> 100,> 100,> 100,> 100,> 100,> 100,> 100,> 100,–,–,> 100,–,–,–
CCCCNC(=O)CCN(C(=O)O)S(=O)(=O)c1ccc(NC(=O)c2ccccc2)cc1,> 100,29.2,> 100,> 100,> 100,> 100,> 100,> 100,> 100,> 100,> 100,> 100,> 100,> 100,–,> 100,–,–,–
O=C(Cn1c2ccc(Br)cc2c2nc3ccccc3nc21)N/N=C/c1ccccc1,> 100,> 100,> 100,–,–,> 100,–,> 100,> 100,> 100,> 100,> 100,–,> 100,> 100,> 100,> 100,> 100,> 100
CCC1(N=[N+]=[N-])C(=O)c2ccccc2N(c2ccccc2)C1=O (stereo not drawn),> 100,> 100,> 100,> 100,> 100,> 100,> 100,> 100,> 100,> 100,> 100,> 100,> 100,> 100,–,> 100,–,–,–
Cc1nc2c(n1CCN(C)C)C(=O)c1ccccc1C2=O,> 100,29,27.1,26,8.06,20,45.5,16.5,31.5,49,26.5,> 100,18.5,32.2,68.2,25.8,–,–,–
